Data as given in paper PMC6691788, “Design and synthesis of phthalazine-based compounds as potent anticancer agents with potential antiangiogenic activity via VEGFR-2 inhibition” (Journal of Enzyme Inhibition and Medicinal Chemistry, 2019).

Experiments:
Assay in all cases: NCI 60 cell panel SRB screen
SN12C = type: cell-based; conditions: Homo sapiens, single dose 10 μM, read-out: percent cell growth promotion
SNB-19 = type: cell-based; conditions: Homo sapiens
HCC-2998 = type: cell-based; conditions: Homo sapiens
SF-268 = type: cell-based; conditions: Homo sapiens
HOP-92 = type: cell-based; conditions: Homo sapiens
DU-145 = type: cell-based; conditions: Homo sapiens
NCI-H322M = type: cell-based; conditions: Homo sapiens
SNB-75 = type: cell-based; conditions: Homo sapiens
CAKI-1 = type: cell-based, human
RPMI-8226 = type: cell-based; conditions: Homo sapiens
MOLT-4 = type: cell-based; conditions: Homo sapiens, MOLT-4, 5 log dose
UACC-62 = type: cell-based
SK-OV-3 = type: cell-based; conditions: Homo sapiens
CCRF-CEM = type: cell-based, human
OVCAR-5 = type: cell-based; conditions: Homo sapiens
LOX IMVI = type: cell-based; conditions: Homo sapiens
UACC-257 = type: cell-based; conditions: Homo sapiens
[1] = 5 log dose, 48 h, read-out: LC50 (the source's name)

Question: With O=C(Nc1ccccc1)Nc1ccc(Oc2nnc(Cl)c3ccccc23)cc1 [Compound 13a, 1–(4-(4-Chlorophthalazin-1-yloxy)phenyl)-3-phenylurea] as the compound, how does the activity at 10 µM (SN12C) read?
Answer: 53.7%

Question: And the GI50 (SNB-19; SNB-19, 5 log dose)?
Answer: 1.67 µM

Question: And the IC (TGI) (SNB-19; SNB-19, 5 log dose)?
Answer: 8.46 µM

Question: What about the CC50 (SNB-19; SNB-19, 5 log dose, 48 h, read-out: LC50 (the source's name)) of the same compound?
Answer: > 25 µM

Question: And the activity at 10 µM (SNB-19; SNB-19, single dose 10 μM, read-out: percent cell growth promotion)?
Answer: 9.64%

Question: And the GI50 (HCC-2998; HCC-2998, 5 log dose)?
Answer: 4.2 µM

Question: And the IC (TGI) (HCC-2998; HCC-2998, 5 log dose)?
Answer: 12.2 µM

Question: What about the LC50 (50% lethal concentration) (HCC-2998; HCC-2998, 5 log dose, 48 h) of the same compound?
Answer: > 25 µM

Question: What about the activity at 10 µM (HCC-2998; HCC-2998, single dose 10 μM, read-out: percent cell growth promotion) of the same compound?
Answer: 52.9%

Question: And the GI50 (SF-268; SF-268, 5 log dose)?
Answer: 2.89 µM

Question: What about the IC (TGI) (SF-268; SF-268, 5 log dose) of the same compound?
Answer: 7.57 µM

Question: And the CC50 (SF-268; SF-268, 5 log dose, 48 h, read-out: LC50 (the source's name))?
Answer: 19.8 µM

Question: And the activity at 10 µM (SF-268; SF-268, single dose 10 μM, read-out: percent cell growth promotion)?
Answer: 25.9%

Question: And the GI50 (HOP-92; HOP-92, 5 log dose)?
Answer: 3.09 µM

Question: What about the IC (TGI) (HOP-92; HOP-92, 5 log dose) of the same compound?
Answer: 11.3 µM

Question: And the CC50 (HOP-92; HOP-92, 5 log dose, 48 h, read-out: LC50 (the source's name))?
Answer: > 25 µM

Question: And the activity at 10 µM (HOP-92; HOP-92, single dose 10 μM, read-out: percent cell growth promotion)?
Answer: -7.51%

Question: And the GI50 (DU-145; DU-145, 5 log dose)?
Answer: 3.01 µM

Question: And the IC (TGI) (DU-145; DU-145, 5 log dose)?
Answer: 10.5 µM

Question: What about the CC50 (DU-145; DU-145, 5 log dose, 48 h, read-out: LC50 (the source's name)) of the same compound?
Answer: > 25 µM

Question: What about the activity at 10 µM (DU-145; DU-145, single dose 10 μM, read-out: percent cell growth promotion) of the same compound?
Answer: 39%

Question: And the GI50 (NCI-H322M; 5 log dose)?
Answer: 2.19 µM

Question: And the IC (TGI) (NCI-H322M; 5 log dose)?
Answer: > 25 µM

Question: And the CC50 (NCI-H322M; [1])?
Answer: > 25 µM

Question: And the activity at 10 µM (NCI-H322M; single dose 10 μM, read-out: percent cell growth promotion)?
Answer: 47.3%

Question: What about the GI50 (SNB-75; SNB-75, 5 log dose) of the same compound?
Answer: 1.08 µM

Question: And the IC (TGI) (SNB-75; SNB-75, 5 log dose)?
Answer: 5.9 µM

Question: And the LC50 (concentration killing 50% of cells) (SNB-75; SNB-75, 5 log dose, 48 h)?
Answer: 21.3 µM

Question: And the activity at 10 µM (SNB-75; SNB-75, single dose 10 μM, read-out: percent cell growth promotion)?
Answer: -42%

Question: What about the TGI (CAKI-1; CAKI-1, 5 log dose) of the same compound?
Answer: 14.3 µM

Question: What about the GI50 (CAKI-1; Homo sapiens, CAKI-1, 5 log dose) of the same compound?
Answer: 3.34 µM

Question: What about the CC50 (CAKI-1; Homo sapiens, CAKI-1, 5 log dose, 48 h, read-out: LC50 (the source's name)) of the same compound?
Answer: > 25 µM

Question: What about the activity at 10 µM (CAKI-1; Homo sapiens, CAKI-1, single dose 10 μM, read-out: percent cell growth promotion) of the same compound?
Answer: 84.4%

Question: What about the GI50 (RPMI-8226; RPMI-8226, 5 log dose) of the same compound?
Answer: 4.45 µM

Question: What about the IC (TGI) (RPMI-8226; RPMI-8226, 5 log dose) of the same compound?
Answer: 24.3 µM

Question: What about the CC50 (RPMI-8226; RPMI-8226, 5 log dose, 48 h, read-out: LC50 (the source's name)) of the same compound?
Answer: > 25 µM

Question: And the activity at 10 µM (RPMI-8226; RPMI-8226, single dose 10 μM, read-out: percent cell growth promotion)?
Answer: 35.1%

Question: What about the GI50 (MOLT-4) of the same compound?
Answer: 2.6 µM

Question: And the IC (TGI) (MOLT-4)?
Answer: 11.4 µM

Question: What about the CC50 (MOLT-4; 48 h, read-out: LC50 (the source's name)) of the same compound?
Answer: > 25 µM

Question: And the GI50 (UACC-62; Homo sapiens, UACC-62)?
Answer: 6.84 µM

Question: And the activity at 10 µM (UACC-62; Homo sapiens, UACC-62, read-out: percent cell growth promotion)?
Answer: 41.3%

Question: What about the CC50 (UACC-62; Homo sapiens, UACC-62, 5 log dose, 48 h, read-out: LC50 (the source's name)) of the same compound?
Answer: > 25 µM

Question: What about the TGI (UACC-62; UACC-62, 5 log dose) of the same compound?
Answer: > 25 µM

Question: What about the GI50 (SK-OV-3; SK-OV-3, 5 log dose) of the same compound?
Answer: 1.46 µM

Question: And the IC (TGI) (SK-OV-3; SK-OV-3, 5 log dose)?
Answer: 5.51 µM

Question: What about the CC50 (SK-OV-3; SK-OV-3, 5 log dose, 48 h, read-out: LC50 (the source's name)) of the same compound?
Answer: 16.6 µM

Question: And the activity at 10 µM (SK-OV-3; SK-OV-3, single dose 10 μM, read-out: percent cell growth promotion)?
Answer: -0.5%

Question: And the TGI (CCRF-CEM; 5 log dose)?
Answer: > 25 µM

Question: And the GI50 (CCRF-CEM; Homo sapiens, 5 log dose)?
Answer: 4.44 µM

Question: And the CC50 (CCRF-CEM; Homo sapiens, 5 log dose, 48 h, read-out: LC50 (the source's name))?
Answer: > 25 µM

Question: And the activity at 10 µM (CCRF-CEM; Homo sapiens, single dose 10 μM, read-out: percent cell growth promotion)?
Answer: 47.6%

Question: What about the GI50 (OVCAR-5; OVCAR-5, 5 log dose) of the same compound?
Answer: 5.61 µM

Question: And the IC (TGI) (OVCAR-5; OVCAR-5, 5 log dose)?
Answer: 15.3 µM

Question: What about the CC50 (OVCAR-5; OVCAR-5, 5 log dose, 48 h, read-out: LC50 (the source's name)) of the same compound?
Answer: > 25 µM

Question: What about the activity at 10 µM (OVCAR-5; OVCAR-5, single dose 10 μM, read-out: percent cell growth promotion) of the same compound?
Answer: 86.3%

Question: And the GI50 (LOX IMVI)?
Answer: 3.46 µM

Question: And the CC50 (LOX IMVI; [1])?
Answer: 13.4 µM

Question: What about the IC (TGI) (LOX IMVI; read-out: TGI) of the same compound?
Answer: 6.08 µM

Question: What about the activity at 10 µM (LOX IMVI; read-out: percent cell growth promotion) of the same compound?
Answer: 32.1%

Question: And the GI50 (UACC-257; UACC-257)?
Answer: 3.96 µM

Question: And the IC (TGI) (UACC-257; UACC-257, read-out: TGI)?
Answer: > 25 µM

Question: What about the activity at 10 µM (UACC-257; UACC-257, read-out: percent cell growth promotion) of the same compound?
Answer: 22%

Question: And the CC50 (UACC-257; UACC-257, 5 log dose, 48 h, read-out: LC50 (the source's name))?
Answer: > 25 µM
